Assay results taken from article PMC7027746 (Clinical Pharmacology in Drug Development, 2019).
Like-named read-outs stand apart in the source and are kept apart here.

How the values were obtained:
ALK = settings: in vitro; cited from earlier work
[1] = single 180‐mg oral dose of [14C]‐brigatinib, healthy volunteers; cited from earlier work
CYP3A expression = settings: human hepatocytes, clinically relevant concentrations, via activation of the pregnane X receptor; cited from earlier work
[2] = cited from earlier work
[3] = format: in vivo, human; settings: for CL/F, geometric mean (% CV) / CL/F, mean (SD) / AUC / Cmax: healthy subjects
[4] = Rifampin DDI arm: single-dose brigatinib plasma PK with and without rifampin; format: in vivo, human; settings: for half-life / Cmax / AUC: human, plasma
CYP1A2 = settings: human liver microsomes, clinically relevant concentrations; ref data on file; cited from earlier work
CYP3A4/5 = settings: human liver microsomes, clinically relevant concentrations; ref data on file; cited from earlier work
[5] = format: in vivo, human; settings: for CL/F, geometric mean (% CV) / CL/F, mean (SD) / AUC / Cmax: healthy subjects; remark: listed apart in the source
healthy subjects = test: Safety and tolerability; format: in vivo, human
CYP2C9 = settings: human liver microsomes, clinically relevant concentrations; ref data on file; cited from earlier work
CYP2C8 = settings: human liver microsomes, clinically relevant concentrations; ref data on file; cited from earlier work
CYP2D6 = settings: human liver microsomes, clinically relevant concentrations; ref data on file; cited from earlier work
CYP2C19 = settings: human liver microsomes, clinically relevant concentrations; ref data on file; cited from earlier work
CYP2B6 = settings: human liver microsomes, clinically relevant concentrations; ref data on file; cited from earlier work
[6] = test system: crizotinib‐naive patients with ALK‐positive NSCLC; settings: cited from earlier work
[7] = healthy volunteers, cited from earlier work
[8] = brigatinib 90 mg + itraconazole vs brigatinib alone
[9] = brigatinib + itraconazole compared with brigatinib alone
[10] = single 90 mg oral brigatinib + itraconazole 200 mg BID (test), n = 11
[11] = single 90 mg oral brigatinib alone (reference), n = 20
[12] = human, plasma, po, 90 mg, AUC0‐120, geometric mean (% CV), single 90 mg oral brigatinib alone (reference), n = 20
[13] = human, plasma, po, 90 mg, AUC0‐120, mean (SD), single 90 mg oral brigatinib alone (reference), n = 20
[14] = human, plasma, po, 90 mg, geometric mean (% CV), single 90 mg oral brigatinib alone (reference), n = 20
[15] = brigatinib 180 mg + rifampin vs brigatinib alone
[16] = brigatinib + rifampin compared with brigatinib alone
[17] = healthy subjects, single 180 mg oral brigatinib + rifampin 600 mg QD (test), n = 19
[18] = healthy subjects, single 180 mg oral brigatinib alone (reference), n = 20
[19] = brigatinib 90 mg + gemfibrozil vs brigatinib alone
[20] = brigatinib + gemfibrozil compared with brigatinib alone
[21] = single 90 mg oral brigatinib + gemfibrozil 600 mg BID (test), n = 19
[22] = single 90 mg oral brigatinib alone (reference), n = 19
[23] = brigatinib coadministered with gemfibrozil

## COc1cc(N2CCC(N3CCNCC3)CC2)ccc1Nc1ncc(Cl)c(Nc2ccccc2P(C)(C)=O)n1 [N‐desmethyl brigatinib]
ALK
  ALK inhibition potency, fold lower than brigatinib: approximately 3 fold
[1]
  share of circulating radioactive components: 3.5%

## COc1cc(N2CCC(N3CCN(C)CC3)CC2)ccc1Nc1ncc(Cl)c(Nc2ccccc2P(C)(C)=O)n1 [brigatinib, Brigatinib]
CYP3A expression
  induction of CYP3A expression: induced CYP3A expression
[2]; 180 mg once daily in patients with cancer
  steady‐state apparent oral clearance (CL/F): 12.7 L/h
[2]; patients with cancer, dose range 60‐240 mg once daily
  single‐ and repeat‐dose systemic exposures versus dose: increased dose‐proportionally
[3]; [8]
  CL/F, geometric LS mean ratio (90%CI) (test vs reference): 0.50 (0.45‐0.54)
  Cmax, geometric LS mean ratio (90%CI) (test vs reference): 1.21 (1.13‐1.30)
[3]; [9]
  increase of geometric mean AUC0‐120: 82%
  increase of geometric mean AUC0‐inf: 101%
  increase of geometric mean Cmax: 21%
  prolongation in the geometric mean t½: ~50%
[3]; by itraconazole
  increase of systemic exposure: 2 fold
[3]; [10]
  CL/F, geometric mean (% CV): 6.67 (35.6) L/h
  CL/F, mean (SD): 7.05 (2.54) L/h
[3]; [11]
  CL/F, geometric mean (% CV): 14.0 (28.7) L/h
  CL/F, mean (SD): 14.46 (3.84) L/h
[3]; human, plasma, po, 90 mg
  Tmax: 2.8 h
  half-life: 30.5 h
[3]; [12]
  AUC: 6140 ng·h/mL
[3]; [13]
  AUC: 6380 ng·h/mL
[3]; human, plasma, po, 90 mg, AUC0‐inf, geometric mean (% CV), single 90 mg oral brigatinib alone (reference), n = 20
  AUC: 6450 ng·h/mL
[3]; human, plasma, po, 90 mg, AUC0‐inf, mean (SD), single 90 mg oral brigatinib alone (reference), n = 20
  AUC: 6710 ng·h/mL
[3]; [14]
  Cmax: 331 ng/mL
[3]; human, plasma, po, geometric mean (% CV), single 90 mg oral brigatinib + itraconazole 200 mg BID (test), n = 20
  Cmax: 401 ng/mL
[3]; human, plasma, po, mean (SD), single 90 mg oral brigatinib + itraconazole 200 mg BID (test), n = 20
  Cmax: 429 ng/mL
[4]; [15]
  AUC0‐120, geometric LS mean ratio (90%CI) (test vs reference): 0.20 (0.19‐0.22)
  CL/F, geometric LS mean ratio (90%CI) (test vs reference): 5.11 (4.73‐5.51)
[4]; [16]
  decrease of geometric mean Cmax: 60%
  reduction of geometric mean AUC0‐inf: 80%
[4]; [17]
  CL/F, geometric mean (% CV): 59.2 (25.8) L/h
  CL/F, mean (SD): 61.0 (15.4) L/h
  tmax, median (range): 2.0 (1.0‐4.0) h
[4]; [18]
  CL/F, geometric mean (% CV): 11.5 (34.4) L/h
  CL/F, mean (SD): 12.2 (4.3) L/h
[4]; oral, 180 mg, geometric mean t½, brigatinib 180 mg in the presence of rifampin
  half-life: 23.4 h
[4]; po, 180 mg, geometric mean (% CV), healthy subjects, single 180 mg oral brigatinib alone (reference), n = 20
  Cmax: 826 ng/mL
[4]; po, AUC0‐120, geometric mean (% CV), healthy subjects, single 180 mg oral brigatinib + rifampin 600 mg QD (test), n = 19
  AUC: 3020 ng·h/mL
[4]; po, AUC0‐120, mean (SD), healthy subjects, single 180 mg oral brigatinib + rifampin 600 mg QD (test), n = 19
  AUC: 3110 ng·h/mL
[4]; po, AUC0‐inf, geometric mean (% CV), healthy subjects, single 180 mg oral brigatinib + rifampin 600 mg QD (test), n = 19
  AUC: 3040 ng·h/mL
[4]; po, AUC0‐inf, mean (SD), healthy subjects, single 180 mg oral brigatinib + rifampin 600 mg QD (test), n = 19
  AUC: 3140 ng·h/mL
[4]; po, geometric mean (% CV), healthy subjects, single 180 mg oral brigatinib + rifampin 600 mg QD (test), n = 19
  Cmax: 334 ng/mL
[4]; po, mean (SD), healthy subjects, single 180 mg oral brigatinib + rifampin 600 mg QD (test), n = 19
  Cmax: 347 ng/mL
[4]; po, t½, mean (SD), healthy subjects, single 180 mg oral brigatinib + rifampin 600 mg QD (test), n = 19
  half-life: 23.7 h
[4]; in the presence of rifampin
  increase in CL/F: approximately 5 fold
CYP1A2
  inhibition of CYP1A2 activity: did not inhibit
CYP3A4/5
  inhibition of CYP3A4/5 activity: did not inhibit
[5]; [19]
  AUC0‐120, geometric LS mean ratio (90%CI) (test vs reference): 0.85 (0.80‐0.91)
  CL/F, geometric LS mean ratio (90%CI) (test vs reference): 1.13 (1.06‐1.20)
[5]; [20]
  reduction in peak concentrations: approximately 40%
  reduction of geometric mean AUC0‐inf: 12%
[5]; [21]
  CL/F, geometric mean (% CV): 15.7 (25.7) L/h
  CL/F, mean (SD): 16.2 (4.3) L/h
[5]; [22]
  CL/F, geometric mean (% CV): 13.1 (33.9) L/h
  CL/F, mean (SD): 13.8 (4.6) L/h
[5]; human, plasma, oral, 90 mg
  half-life: 26.5 h
[5]; human, plasma, po, 90 mg
  Tmax: 2 h
  half-life: 26.7 h
[5]; [12]
  AUC: 6490 ng·h/mL
[5]; [13]
  AUC: 6840 ng·h/mL
[5]; human, plasma, po, 90 mg, AUC0‐inf, geometric mean (% CV), single 90 mg oral brigatinib alone (reference), n = 19
  AUC: 6880 ng·h/mL
[5]; human, plasma, po, 90 mg, AUC0‐inf, mean (SD), single 90 mg oral brigatinib alone (reference), n = 19
  AUC: 7230 ng·h/mL
[5]; [14]
  Cmax: 348 ng/mL
[5]; human, plasma, po, AUC0‐120, geometric mean (% CV), single 90 mg oral brigatinib + gemfibrozil 600 mg BID (test), n = 19
  AUC: 5340 ng·h/mL
[5]; human, plasma, po, AUC0‐120, mean (SD), single 90 mg oral brigatinib + gemfibrozil 600 mg BID (test), n = 19
  AUC: 5520 ng·h/mL
[5]; human, plasma, po, AUC0‐inf, geometric mean (% CV), single 90 mg oral brigatinib + gemfibrozil 600 mg BID (test), n = 19
  AUC: 5740 ng·h/mL
[5]; human, plasma, po, AUC0‐inf, mean (SD), single 90 mg oral brigatinib + gemfibrozil 600 mg BID (test), n = 19
  AUC: 5910 ng·h/mL
[5]; human, plasma, po, geometric mean (% CV), single 90 mg oral brigatinib + gemfibrozil 600 mg BID (test), n = 19
  Cmax: 199 ng/mL
[5]; human, plasma, po, mean (SD), single 90 mg oral brigatinib + gemfibrozil 600 mg BID (test), n = 19
  Cmax: 210 ng/mL
Healthy subjects; Gemfibrozil DDI arm (n = 20)
  Any serious TEAE: 0 n (%)
  Any severe TEAE: 0 n (%)
  On‐study deaths: 0 n (%)
Healthy subjects; Gemfibrozil DDI arm (n = 20), brigatinib 90 mg alone and with gemfibrozil
  Any TEAE: 9 (45) n (%)
Healthy subjects; Gemfibrozil DDI arm (n = 20), emesis, treatment period 2
  AE leading to discontinuation: 1 n (%)
Healthy subjects; Itraconazole DDI arm (n = 20)
  AE leading to discontinuation: 0 n (%)
  Any serious TEAE: 0 n (%)
  Any severe TEAE: 0 n (%)
  On‐study deaths: 0 n (%)
Healthy subjects; Rifampin DDI arm (n = 20)
  Any serious TEAE: 0 n (%)
  Any severe TEAE: 0 n (%)
  On‐study deaths: 0 n (%)
Healthy subjects; Rifampin DDI arm (n = 20), elevated aspartate aminotransferase and alanine aminotransferase, treatment period 2
  AE leading to discontinuation: 1 n (%)
Healthy subjects; [23]
  TEAE incidence: cough: 20%
  TEAE incidence: throat irritation: 10%
Healthy subjects; brigatinib coadministered with rifampin
  TEAE incidence: cough: 10%
CYP2C9
  inhibition of CYP2C9 activity: did not inhibit
CYP2C8
  inhibition of CYP2C8 activity: did not inhibit
CYP2D6
  inhibition of CYP2D6 activity: did not inhibit
CYP2C19
  inhibition of CYP2C19 activity: did not inhibit
[1]
  administered dose recovered in feces: 65%
  administered dose recovered in urine: 25%
  share of circulating radioactive components: 92%
CYP2B6
  inhibition of CYP2B6 activity: did not inhibit
[6]; brigatinib versus crizotinib, P < .001
  hazard ratio, progression‐free survival: 0.49 [95%CI, 0.33‐0.74]
[6]; phase 3 trial, crizotinib‐naive patients with ALK‐positive NSCLC
  12‐month progression‐free survival: 67%
[7]; compared with fasted‐state administration
  decrease of peak concentration (Cmax) by a high‐fat meal: 13%
[7]; fasted state
  median time to Cmax (tmax): 2 h
[7]; high‐fat meal
  median time to Cmax (tmax): 5 h
[7]
  effect of a high‐fat meal on total systemic exposure: no impact
